Marks after values point to notes of the source that are not given here.
Experiments:
P. multocida 46572 = test: In vivo mouse lung infection challenge model (murine efficacy model); conditions: for % Survival: 20 mg/kg subcutaneous, CD-1 mice, intranasal challenge, to Day 10, approximate (~%), harmonized relative to vehicle and M9
TNF-α = test: Bovine whole blood assay, LPS-induced TNF-α; assay type: cell-based; conditions: LPS 1 μg/mL
Protocol: (§1) (protected from light) for 30 minutes.

IL-1β = test: Bovine whole blood assay, IL-1β; assay type: cell-based; conditions: drug concentration giving overstimulation of IL-1β over LPS (cellular toxicity signal)
Protocol: as §1

[1] = tested on: BRD pathogens, M. haemolytica and P. multocida; test: In-vitro MIC model, BRD pathogen screening panel; assay type: cell-based; conditions: asterisk = at least one BRD bacterial isolate

Compound | IC50 (TNF-α) [µM] | IL-Iβ OS of LPS (IL-1β) [µM] | MIC flag on Ex# (Table C) [1] | further results
CCCNC[C@]1(O)[C@H](C)O[C@@H](O[C@H]2[C@H](C)[C@@H](O[C@@H]3O[C@H](C)C[C@H]4[C@H]3OC(=Nc3ccccc3)N4C)[C@](C)(O)C[C@@H](C)CN[C@H](C)[C@@H](O)[C@](C)(O)[C@@H](CC)OC(=O)[C@@H]2C)C[C@@]1(C)OC (mixture of isomers) [Example A-6, (E/Z)-(2R,3S,4R,5R,8R,10R,11R,12S,13S,14R)-11-(((3aR,4S,6R,7aS)-1,6-dimethyl-2-(phenylimino)hexahydro-2H-pyrano[4,3-d]oxazol-4-yl)oxy)-2-ethyl-3,4,10-trihydroxy-13-(((2R,4R,5S,6S)-5-hydroxy-4-methoxy-4,6-dimethyl-5-((propylamino)methyl)tetrahydro-2H-pyran-2-yl)oxy)-3,5,8,10,12,14-hexamethyl-1-oxa-6-azacyclopentadecan-15-one] | < 5 | 13 | – | % Survival (P. multocida 46572): 54%
CC[C@H]1OC(=O)[C@H](C)[C@@H](O[C@H]2C[C@@](C)(OC)[C@](O)(CNC(C)C)[C@H](C)O2)[C@H](C)[C@@H](O[C@@H]2O[C@H](C)C[C@H]3[C@H]2OC(=Nc2ccc(OC)nc2)N3C)[C@](C)(O)C[C@@H](C)CN[C@H](C)[C@@H](O)[C@]1(C)O (mixture of isomers) [Example A-26, (E/Z)-(2R,3S,4R,5R,8R,10R,11R,12S,13S,14R)-2-ethyl-3,4,10-trihydroxy-13-(((2R,4R,5S,6S)-5-hydroxy-5-((isopropylamino)methyl)-4-methoxy-4,6-dimethyltetrahydro-2H-pyran-2-yl)oxy)-11-(((3aR,4S,6R,7aS)-2-((6-methoxypyridin-3-yl)imino)-1,6-dimethylhexahydro-2H-pyrano[4,3-d]oxazol-4-yl)oxy)-3,5,8,10,12,14-hexamethyl-1-oxa-6-azacyclopentadecan-15-one] | – | – | – | MIC flag on Ex# (Table A) [1]: A-26* (an MIC ≤ 64 μg/mL for at least one BRD bacterial isolate)
CC[C@H]1OC(=O)[C@H](C)[C@@H](O[C@H]2C[C@@](C)(OC)[C@](O)(CNCCCOC)[C@H](C)O2)[C@H](C)[C@@H](O[C@@H]2O[C@H](C)C[C@H]3[C@H]2OC(=Nc2ccc(OC)nc2)N3C)[C@](C)(O)C[C@@H](C)CN[C@H](C)[C@@H](O)[C@]1(C)O (mixture of isomers) [Example A-27, (E/Z)-(2R,3S,4R,5R,8R,10R,11R,12S,13S,14R)-2-ethyl-3,4,10-trihydroxy-13-(((2R,4R,5S,6S)-5-hydroxy-4-methoxy-5-(((3-methoxypropyl)amino)methyl)-4,6-dimethyltetrahydro-2H-pyran-2-yl)oxy)-11-(((3aR,4S,6R,7aS)-2-((6-methoxypyridin-3-yl)imino)-1,6-dimethylhexahydro-2H-pyrano[4,3-d]oxazol-4-yl)oxy)-3,5,8,10,12,14-hexamethyl-1-oxa-6-azacyclopentadecan-15-one] | – | – | – | MIC flag on Ex# (Table A) [1]: A-27* (an MIC ≤ 64 μg/mL for at least one BRD bacterial isolate)
CCCNC[C@]1(O)[C@H](C)O[C@@H](O[C@H]2[C@H](C)[C@@H](O[C@@H]3O[C@H](C)C[C@H]4[C@H]3OC(=Nc3ccccc3)N4Cc3ccccc3)[C@](C)(O)C[C@@H](C)CN[C@H](C)[C@@H](O)[C@](C)(O)[C@@H](CC)OC(=O)[C@@H]2C)C[C@@]1(C)OC (mixture of isomers) [Example A-33, (E/Z)-(2R,3S,4R,5R,8R,10R,11R,12S,13S,14R)-11-(((3aR,4S,6R,7aS)-1-benzyl-6-methyl-2-(phenylimino)hexahydro-2H-pyrano[4,3-d]oxazol-4-yl)oxy)-2-ethyl-3,4,10-trihydroxy-13-(((2R,4R,5S,6S)-5-hydroxy-4-methoxy-4,6-dimethyl-5-((propylamino)methyl)tetrahydro-2H-pyran-2-yl)oxy)-3,5,8,10,12,14-hexamethyl-1-oxa-6-azacyclopentadecan-15-one] | 8 | 2 | – | MIC flag on Ex# (Table A) [1]: A-33* (an MIC ≤ 64 μg/mL for at least one BRD bacterial isolate)
CC[C@H]1OC(=O)[C@H](C)[C@@H](O[C@H]2C[C@@](C)(OC)[C@](O)(CN3CCN(C)CC3)[C@H](C)O2)[C@H](C)[C@@H](O[C@@H]2O[C@H](C)C[C@H]3[C@H]2OC(=Nc2ccccc2)N3C)[C@](C)(O)C[C@@H](C)CN[C@H](C)[C@@H](O)[C@]1(C)O (mixture of isomers) [Example B-1, (E/Z)-(2R,3S,4R,5R,8R,10R,11R,12S,13S,14R)-11-(((3aR,4S,6R,7aS)-1,6-dimethyl-2-(phenylimino)hexahydro-2H-pyrano[4,3-d]oxazol-4-yl)oxy)-2-ethyl-3,4,10-trihydroxy-13-(((2R,4R,5S,6S)-5-hydroxy-4-methoxy-4,6-dimethyl-5-((4-methylpiperazin-1-yl)methyl)tetrahydro-2H-pyran-2-yl)oxy)-3,5,8,10,12,14-hexamethyl-1-oxa-6-azacyclopentadecan-15-one] | 8 | 13 | – | % Survival (P. multocida 46572): 43%
CC[C@H]1OC(=O)[C@H](C)[C@@H](O[C@H]2C[C@@](C)(OC)[C@](O)(CN3CCN(CC)CC3)[C@H](C)O2)[C@H](C)[C@@H](O[C@@H]2O[C@H](C)C[C@H]3[C@H]2OC(=Nc2ccccc2)N3C)[C@](C)(O)C[C@@H](C)CN[C@H](C)[C@@H](O)[C@]1(C)O (mixture of isomers) [Example B-2, (E/Z)-(2R,3S,4R,5R,8R,10R,11R,12S,13S,14R)-11-(((3aR,4S,6R,7aS)-1,6-dimethyl-2-(phenylimino)hexahydro-2H-pyrano[4,3-d]oxazol-4-yl)oxy)-2-ethyl-13-(((2R,4R,5S,6S)-5-((4-ethylpiperazin-1-yl)methyl)-5-hydroxy-4-methoxy-4,6-dimethyltetrahydro-2H-pyran-2-yl)oxy)-3,4,10-trihydroxy-3,5,8,10,12,14-hexamethyl-1-oxa-6-azacyclopentadecan-15-one] | 6 | 13 | – | –
CC[C@H]1OC(=O)[C@H](C)[C@@H](O[C@H]2C[C@@](C)(OC)[C@](O)(CN3CCOCC3)[C@H](C)O2)[C@H](C)[C@@H](O[C@@H]2O[C@H](C)C[C@H]3[C@H]2OC(=Nc2ccc(OC)cc2)N3C)[C@](C)(O)C[C@@H](C)CN[C@H](C)[C@@H](O)[C@]1(C)O (mixture of isomers) [Example B-4, (E/Z)-(2R,3S,4R,5R,8R,10R,11R,12S,13S,14R)-2-ethyl-3,4,10-trihydroxy-13-(((2R,4R,5S,6S)-5-hydroxy-4-methoxy-4,6-dimethyl-5-(morpholinomethyl)tetrahydro-2H-pyran-2-yl)oxy)-11-(((3aR,4S,6R,7aS)-2-((4-methoxyphenyl)imino)-1,6-dimethylhexahydro-2H-pyrano[4,3-d]oxazol-4-yl)oxy)-3,5,8,10,12,14-hexamethyl-1-oxa-6-azacyclopentadecan-15-one] | < 5 | 13 | – | % Survival (P. multocida 46572): 37%; clinical efficacy, in words (P. multocida 46572; P. multocida infection in mice): clinically efficacious
CC[C@H]1OC(=O)[C@H](C)[C@@H](O[C@H]2C[C@@](C)(OC)[C@@H](O)[C@H](C)O2)[C@H](C)[C@@H](O[C@@H]2O[C@H](C)C[C@H]3[C@H]2OC(=Nc2ccc(F)cc2)N3C)[C@](C)(O)C[C@@H](C)CN[C@H](C)[C@@H](O)[C@]1(C)O (mixture of isomers) [Example C-1, (E/Z)-(2R,3S,4R,5R,8R,10R,11R,12S,13S,14R)-2-ethyl-11-(((3aR,4S,6R,7aS)-2-((4-fluorophenyl)imino)-1,6-dimethylhexahydro-2H-pyrano[4,3-d]oxazol-4-yl)oxy)-3,4,10-trihydroxy-13-(((2R,4R,5S, 6S)-5-hydroxy-4-methoxy-4,6-dimethyltetrahydro-2H-pyran-2-yl)oxy)-3,5,8,10,12,14-hexamethyl-1-oxa-6-azacyclopentadecan-15-one] | – | – | C-1* (MIC ≤ 64 μg/mL for at least one BRD bacterial isolate) | –
CC[C@H]1OC(=O)[C@H](C)[C@@H](O[C@H]2C[C@@](C)(OC)[C@@H](O)[C@H](C)O2)[C@H](C)[C@@H](O[C@@H]2O[C@H](C)C[C@H]3[C@H]2OC(=Nc2ccc(OC)cc2)N3C)[C@](C)(O)C[C@@H](C)CN[C@H](C)[C@@H](O)[C@]1(C)O (mixture of isomers) [Example C-3, (E/Z)-(2R,3S,4R,5R,8R,10R,11R,12S,13S,14R)-2-ethyl-3,4,10-trihydroxy-13-(((2R,4R,5S,6S)-5-hydroxy-4-methoxy-4,6-dimethyltetrahydro-2H-pyran-2-yl)oxy)-11-(((3aR,4S,6R,7aS)-2-((4-methoxyphenyl)imino)-1,6-dimethylhexahydro-2H-pyrano[4,3-d]oxazol-4-yl)oxy)-3,5,8,10,12,14-hexamethyl-1-oxa-6-azacyclopentadecan-15-one] | – | – | C-3* (MIC ≤ 64 μg/mL for at least one BRD bacterial isolate) | –
CC[C@H]1OC(=O)[C@H](C)[C@@H](O[C@H]2C[C@@](C)(OC)[C@@H](O)[C@H](C)O2)[C@H](C)[C@@H](O[C@@H]2O[C@H](C)C[C@H]3[C@H]2OC(=Nc2ccccc2)N3C)[C@](C)(O)C[C@@H](C)CN[C@H](C)[C@@H](O)[C@]1(C)O (mixture of isomers) [Example C-4, (E/Z)-(2R,3S,4R,5R,8R,10R,11R,12S,13S,14R)-11-(((3aR,4S,6R,7aS)-1,6-dimethyl-2-(phenylimino)hexahydro-2H-pyrano[4,3-d]oxazol-4-yl)oxy)-2-ethyl-3,4,10-trihydroxy-13-(((2R,4R,5S,6S)-5-hydroxy-4-methoxy-4,6-dimethyltetrahydro-2H-pyran-2-yl)oxy)-3,5,8,10,12,14-hexamethyl-1-oxa-6-azacyclopentadecan-15-one] | – | – | C-4* (MIC ≤ 64 μg/mL for at least one BRD bacterial isolate) | –
(E/Z)-(2R,3S,4R,5R,8R,10R,11R,12S,13S,14R)-2-ethyl-3,4,10-trihydroxy-13-(((2R,4R,5S,6S)-5-hydroxy-4-methoxy-4,6-dimethyltetrahydro-2H-pyran-2-yl)oxy)-11-(((3aR,4S,6R,7aS)-2-((6-methoxypyridin-3-yl)imino)-1,6-dimethylhexahydro-2H-pyrano[4,3-d]oxazol-4-yl)oxy)-3,5,8,10,12,14-hexamethyl-1-oxa-6-azacyclopentadecan-15-one [Example C-2] | – | – | C-2* (MIC ≤ 64 μg/mL for at least one BRD bacterial isolate) | –

From patent US20230129438A1, “IMMUNOMODULATING IMINE-OXAZOLINE AZALIDES” (Zoetis Services LLC, priority 2020, published 2023)
